The results in this text go back to ChEMBL document CHEMBL1287786, “Synthesis, antimicrobial and antioxidant evaluation of quinolines and bis(indolyl)methanes” (2010).

What all share (assay type): functional
The subject of assay [1] is Radical scavenging activity. The assay can be described thus: Antioxidant activity assessed as DPPH radical scavenging activity at 1000 ug by spectrophotometry relative to control.
The nature of assay [2]: Antioxidant activity assessed as hydrogen peroxide radical scavenging activity after 40 mins by spectrophotometry relative to control. Further details: concentration or dose not given beside the values.
Assay [3] has as its system Candida albicans. The assay can be described thus: Antifungal activity against Candida albicans ATCC 10231 at 1000 ug/ml after 24 hrs by cup plate method. To be noted: ATCC 10231, 24 h, read-out: IZ.
Assay [4] relates to Radical scavenging activity. Put plainly: Antioxidant activity assessed as DPPH radical scavenging activity at 50 ug by spectrophotometry relative to control.
Assay [5] can be described thus: Antioxidant activity assessed as hydrogen peroxide radical scavenging activity after 30 mins by spectrophotometry relative to control. Further details: concentration or dose not given beside the values.
A short description of assay [6]: Antioxidant activity assessed as hydrogen peroxide radical scavenging activity after 20 mins by spectrophotometry relative to control. Also on record: concentration or dose not given beside the values.
A short description of assay [7]: Antioxidant activity assessed as hydrogen peroxide radical scavenging activity by spectrophotometry relative to control. Further details: concentration or dose not given beside the values.
For assay [8], the system named is Radical scavenging activity. Put plainly: Antioxidant activity assessed as DPPH radical scavenging activity at 500 ug by spectrophotometry relative to control. In general terms: DPPH is a stable violet radical that fades when it is reduced.
Assay [9] relates to Staphylococcus aureus. The assay can be described thus: Antibacterial activity against Staphylococcus aureus ATCC 25923 at 1000 ug/ml after 24 hrs by cup plate method. Conditions: ATCC 25923, 24 h, read-out: IZ.
The test system of assay [10] is Escherichia coli. Put plainly: Antibacterial activity against Escherichia coli ATCC 25922 at 1000 ug/ml after 24 hrs by cup plate method. Conditions: ATCC 25922, 24 h, read-out: IZ.
Assay [11] in a line: Antioxidant activity assessed as hydrogen peroxide radical scavenging activity after 10 mins by spectrophotometry relative to control. Further details: concentration or dose not given beside the values.

`c1ccc(-c2[nH]c3ccccc3c2C(c2ccc3c(c2)-c2ccccc2C3)c2c(-c3ccccc3)[nH]c3ccccc23)cc1`: the Activity turned out to be 85% in assay [1]; 70% in [2]; 19% in assay [4]; 73% in assay [5]; 76% in assay [6]; 88% in [7]. Besides, the Activity is 66% in assay [8] and 85% in [11]. The zone of inhibition at 1000 µg/mL in assay [3] turned out to be 18 mm; in assay [9], 24 mm; in [10], 18 mm.
Regarding `CCCCCc1ccc(-c2cc(C)c3ccccc3n2)cc1`, the zone of inhibition at 1000 µg/mL in assay [3] stood at 18 mm; in assay [9] it was 21 mm; in assay [10] it was 18 mm.
`O=C(O)c1ccc(C(c2c(-c3ccccc3)[nH]c3ccccc23)c2c(-c3ccccc3)[nH]c3ccccc23)cc1`: the Activity worked out at 80% in assay [1]; 24% in assay [2]; 17% in assay [4]; 35% in assay [5]; 45% in [6]; 60% in [7]. Also, the Activity stood at 48% in assay [8] and 45% in assay [11]. Further, the zone of inhibition at 1000 µg/mL in [3] came out at 16 mm; in assay [9] it was 24 mm; in assay [10], 19 mm.
Consider `C[C@@H]1[C@H](O)[C@@H](C)/C=C/C=C/C=C/C=C/C=C/C=C/C=C/[C@H](O[C@@H]2O[C@H](C)[C@@H](O)[C@H](N)[C@@H]2O)C[C@@H]2O[C@](O)(C[C@@H](O)C[C@@H](O)[C@H](O)CC[C@@H](O)C[C@@H](O)CC(=O)O[C@H]1C)C[C@H](O)[C@H]2C(=O)O` [AMPHOTERICIN B], for which the zone of inhibition at 1000 µg/mL in [3] was determined as 20 mm.
For the molecule `COc1cccc(-c2cc(-c3ccccc3)c3ccccc3n2)c1`, the zone of inhibition at 1000 µg/mL was determined as 14 mm in assay [3], 21 mm in [9] and 23 mm in assay [10].
Turning to `Cc1ccc(-c2cc(-c3ccccc3)c3ccccc3n2)cc1`, the zone of inhibition at 1000 µg/mL is 19 mm in assay [3], 24 mm in [9] and 17 mm in assay [10].
On to `c1ccc(-c2ccc(C(c3c(-c4ccccc4)[nH]c4ccccc34)c3c(-c4ccccc4)[nH]c4ccccc34)cc2)cc1`, for which the Activity turned out to be 75% in assay [1]; 59% in assay [2]; 22% in [4]; 70% in assay [5]; 75% in [6]; 87% in [7]. For the same molecule, the Activity in assay [8] is 55%; in assay [11], 83%. The zone of inhibition at 1000 µg/mL in [3] is 25 mm; in assay [9], 26 mm; in assay [10], 26 mm.
Take `Clc1ccc(-c2nn(-c3ccccc3)cc2C(c2c(-c3ccccc3)[nH]c3ccccc23)c2c(-c3ccccc3)[nH]c3ccccc23)cc1`: the Activity in assay [1] is 87%; in [2], 79%; in [4], 21%; in [5], 80%; in assay [6], 81%; in [7], 83%. Besides, the results for the Activity in [8] and in assay [11] were 65% and 82%, respectively. The zone of inhibition at 1000 µg/mL in [3] worked out at 12 mm; in [9] it was 19 mm; in assay [10] it was 15 mm.
As to `CCCCc1cc(-c2ccccc2)c2ccccc2n1`, the zone of inhibition at 1000 µg/mL in assay [3] is 15 mm; in assay [9] it was 20 mm; in [10], 19 mm.
`c1ccc(-c2cc(-c3ccccn3)nc3ccccc23)cc1`: the zone of inhibition at 1000 µg/mL in assay [3] is 18 mm; in assay [9] it was 23 mm; in [10], 18 mm.
For the molecule `Cc1ccccc1-c1cc(-c2ccccc2)c2ccccc2n1`, the values for the zone of inhibition at 1000 µg/mL in assay [3], in assay [9] and in [10] were 15 mm, 15 mm and 18 mm, respectively.
`Cc1cc(-c2ccccc2)nc2ccccc12`: the zone of inhibition at 1000 µg/mL in assay [3] came out at 16 mm; in assay [9] it was 14 mm; in assay [10], 20 mm.
With `c1ccc(-c2cc(-c3ccccc3)c3ccccc3n2)cc1`, the zone of inhibition at 1000 µg/mL in assay [3] stood at 13 mm; in assay [9], 18 mm; in [10] it was 17 mm.
The corresponding values for `Cc1ccc(-c2cc(-c3ccccc3)c3cc(Cl)ccc3n2)cc1` are 23 mm, 22 mm and 22 mm.
As to `COc1cc(Br)c(C(c2c(-c3ccccc3)[nH]c3ccccc23)c2c(-c3ccccc3)[nH]c3ccccc23)cc1OC`, the Activity came out at 69% in assay [1]; 69% in [2]; 21% in assay [4]; 72% in [5]; 74% in assay [6]; 86% in assay [7]. In addition, the results for the Activity in assay [8] and in assay [11] were 52% and 85%, respectively. For the same molecule, the zone of inhibition at 1000 µg/mL in [3] was determined as 16 mm; in assay [9] it was 12 mm; in [10] it was 14 mm.
Consider `Cn1c(C(c2c(-c3ccccc3)[nH]c3ccccc23)c2c(-c3ccccc3)[nH]c3ccccc23)cc2ccccc21`, for which the Activity in assay [1] stood at 76%; in assay [2], 16%; in [4] it was 19%; in [5], 20%; in [6], 21%; in assay [7], 43%. In addition, the Activity in assay [8] was determined as 63%; in [11], 35%. In addition, the zone of inhibition at 1000 µg/mL worked out at 14 mm in assay [3], 13 mm in assay [9] and 16 mm in assay [10].
As to `c1ccc(-c2[nH]c3ccccc3c2C(c2cccc3ccccc23)c2c(-c3ccccc3)[nH]c3ccccc23)cc1`, the Activity in [1] was 76%; in assay [2], 71%; in assay [4], 25%; in assay [5], 77%; in assay [6], 82%; in [7], 93%. Moreover, the Activity in assay [8] turned out to be 58%; in assay [11], 84%. Further, the figures for the zone of inhibition at 1000 µg/mL in assay [3], in assay [9] and in [10] were 10 mm, 23 mm and 16 mm, respectively.
As to `Brc1cccc(-c2cc(-c3ccccc3)c3ccccc3n2)c1`, the zone of inhibition at 1000 µg/mL in assay [3] was 10 mm; in assay [9] it was 14 mm; in assay [10], 12 mm.
As to `Cc1cc(C(C)(C)C)c(O)c(C(C)(C)C)c1`, the Activity in [2] was determined as 80%; in assay [5], 82%; in assay [6], 83%; in assay [7], 92%; in [11] it was 86%.
Take `Cc1ccc2nc(-c3cccc(Br)c3)cc(-c3ccccc3)c2c1`: the zone of inhibition at 1000 µg/mL is 21 mm in [3], 24 mm in assay [9] and 22 mm in [10].
The corresponding values for `Clc1ccc2nc(-c3ccccc3)cc(-c3ccccc3)c2c1` are 16 mm, 21 mm and 18 mm.
For `O=C1O[C@H]([C@@H](O)CO)C(O)=C1O`, the Activity was 99% in assay [1], 96% in assay [4] and 97% in [8].
